Each structure is given as a SMILES string.

Data set [1] relates to Production of Fumonisin FB1 by Fusarium proliferatum. Kind of data set: Production of Fumonisin FB1 by Fusarium proliferatum. It is filed as cell-based. The settings on record: FB1 in liquid medium after 6 days at 20° C., HPLC-MS/MS; for IC50: Fusarium proliferatum, 144 h, read-out: pI50 Fum (converted).
The test system of data set [2] is Production of DON/acetyl-DON by Fusarium graminearum. Kind of data set: microbe, parasite or virus in culture. It is filed as cell-based. The settings on record: 168 h, 7 days at 28° C., read-out: activity in the inhibition of DON/AcDON.
Data set [3] is described as follows: logP by HPLC on reversed-phase columns (EEC Directive 79/831 Annex V.A8). It is filed as physicochemical. The method in brief:
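Reversed-phase C18 HPLC per EEC Directive 79/831 Annex V.A8, 10→95% acetonitrile linear gradient. Acidic runs: pH 2.3 with 0.1% aqueous phosphoric acid (HPLC), or pH 2.7 LC-MS with 0.1% formic acid in both phases. Neutral LC-MS at pH 7.8 using 0.001 molar aqueous ammonium bicarbonate.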

In data set [4] the test system is Fusarium proliferatum. Kind of data set: Growth of Fusarium proliferatum (OD620) in the fumonisin test. It is filed as cell-based. The settings on record: for IC50: Fusarium proliferatum, 144 h, read-out: pI50 growth; for pI50 growth: OD620 at the beginning and after 6 days.
Data set [5] has as its system Phakopsora pachyrhizi. Nature of the data set: Phakopsora test (soya beans)/protective. In kind it is in vivo. The settings on record: protective, active compound concentration 250 ppm, evaluation 1 day after inoculation. Here is the method:
Phakopsora Test (Soya Beans)/Protective
Evaluation is carried out 1 day after the inoculation.

`Clc1cnc(Nc2cccc(C3OCCO3)c2)nc1NC1CC1` [Example 1, 5-Chloro-N^4-cyclopropyl-N^2-[3-(1,3-dioxolan-2-yl)phenyl]pyrimidine-2,4-diamine]: the IC50 was 158 nM in data set [1] and 398 nM in data set [4]. Also, the inhibition at 50 µM in data set [2] was over 80%. Also, the chromatographic logP in data set [3] (pH 2.7, log p [b]) stood at 1.59; in data set [3] (pH 2.7, logP (pH 2.7)), 1.59; in data set [3] (pH 7.8, log p [c]), 2.67.
`Clc1cnc(Nc2cccc(C3OCCCO3)c2)nc1NC1CC1` [Example 5, 5-Chloro-N^4-cyclopropyl-N^2-[3-(1,3-dioxan-2-yl)phenyl]pyrimidine-2,4-diamine]: the figures for the IC50 in data set [1] and in data set [4] were 251 nM and 794 nM, respectively. Also, the chromatographic logP in data set [3] (pH 2.7, log p [b]) amounted to 1.69; in data set [3] (pH 2.7, logP (pH 2.7)) it was 1.69; in data set [3] (pH 7.8, log p [c]), 2.83.
`CC1(c2cccc(Nc3ncc(Cl)c(NC4CC4)n3)c2)OCCCO1` [Example 6] yielded a pI50 growth in data set [4] of 5.5.
On to `CC1(c2cccc(Nc3ncc(Cl)c(NC4CC4)n3)c2)OCCO1` [Example 12, 5-Chloro-N^4-cyclopropyl-N^2-[3-(2-methyl-1,3-dioxolan-2-yl)phenyl]pyrimidine-2,4-diamine], for which the IC50 is 501 nM in data set [1] and 1580 nM in data set [4]. Further, the chromatographic logP in data set [3] (pH 2.7, log p [b]) turned out to be 1.9; in data set [3] (pH 2.7, logP (pH 2.7)), 1.9; in data set [3] (pH 7.8, log p [c]), 3.09.
For the compound `CC1OC(c2cccc(Nc3ncc(Br)c(NC4CC4)n3)c2)OC1C` (stereo not drawn) [Example 14], in data set [3] (pH 2.7), the “log p [b]” value was found to be 2.31. The “log p [c]” value in data set [3] (pH 7.8) is reported as 3.5. The pI50 growth in data set [4] was found to be 5.5.
`CC1(C)COC(c2cccc(Nc3ncc(Br)c(NC4CC4)n3)c2)OC1` [Example 16]: the “pI50 Fum” value in data set [1] is 6. For the same compound, the “log p [b]” value in data set [3] (pH 2.7) is reported as 2.65. The “log p [c]” value in data set [3] (pH 7.8) was 3.9.
Turning to `FC(F)(F)c1cnc(Nc2cccc(C3OCCO3)c2)nc1NC1CCC1` [Example 22], the “log p [b]” value in data set [3] (pH 2.7) is 3.06. In addition, in data set [3] (pH 7.8), the “log p [c]” value is 3.57. In addition, the pI50 growth in data set [4] was 5.5.
Turning to `CN(c1nc(Nc2cccc(C3OCCO3)c2)ncc1Cl)C1CC1` [Example 23], the “log p [b]” value in data set [3] (pH 2.7) is listed as 2.52. In data set [3] (pH 7.8), the “log p [c]” value turned out to be 3.45. In addition, the pI50 growth in data set [4] worked out at 4.9.
Regarding `FC(F)(F)c1cnc(Nc2cccc(C3OCCO3)c2)nc1NC1CC1` [Example 24], in data set [1], the “pI50 Fum” value is recorded as 6. For the same compound, the “log p [b]” value in data set [3] (pH 2.7) is on record as 3.7. In data set [3] (pH 7.8), the “log p [c]” value was 3.02. Moreover, in data set [4], the pI50 growth is 5.5.
`CC1(c2ccc(Nc3ncc(Cl)c(NC4CC4)n3)cc2)OCCO1` [Example 27, 5-Chloro-N^4-cyclopropyl-N^2-[4-(2-methyl-1,3-dioxolan-2-yl)phenyl]pyrimidine-2,4-diamine]: the IC50 in data set [1] is 398 nM; in data set [4] it was 1000 nM. Besides, the chromatographic logP in data set [3] (pH 2.7, log p [b]) came out at 1.84; in data set [3] (pH 2.7, logP (pH 2.7)) it was 1.84; in data set [3] (pH 7.8, log p [c]) it was 2.99.
For the compound `COCC1COC(c2cccc(Nc3ncc(Cl)c(NC4CC4)n3)c2)O1` (stereo not drawn) [Example 28], the “pI50 Fum” value in data set [1] is 6.5. Besides, in data set [3] (pH 2.7), the “log p [b]” value came to 2.21. Also, the “log p [c]” value in data set [3] (pH 7.8) is reported as 2.81.
On to `CC(C)(C)C1COC(c2cccc(Nc3ncc(Cl)c(NC4CC4)n3)c2)O1` (stereo not drawn) [Example 30], for which, in data set [1], the “pI50 Fum” value is listed as 6. The “log p [c]” value in data set [3] (pH 7.8) is 4.34[c]. Moreover, the pI50 growth in data set [4] worked out at 5.3.
`COCC1COC(c2cccc(Nc3ncc(C(F)(F)F)c(NC4CC4)n3)c2)O1` (stereo not drawn) [Example 105]: the “log p [a]” value in data set [3] (pH 2.3) amounted to 2.26. Further, the “log p [b]” value in data set [3] (pH 2.7) is 2.74[b]. In addition, in data set [3] (pH 7.8), the “log p [c]” value came out at 3.23. Also, in data set [5], the efficacy is recorded as at least 80%. Further, the pI50 growth in data set [4] is reported as 5.5.
With `COc1ccc(Nc2ncc(Br)c(NC3CC3)n2)cc1C1OCCO1` [Example 138], the values for the log p in data set [3] (pH 2.7) and in data set [3] (pH 7.8) were 1.5 and 2.7, respectively.
Take `COc1ccc(Nc2ncc(Br)c(NC3CCC3)n2)cc1C1OCCO1` [Example 139]: the values for the log p in data set [3] (pH 2.7) and in data set [3] (pH 7.8) were 1.79 and 3.29, respectively.
The matching figures for `Fc1ccc(Nc2ncc(Br)c(NC3CC3)n2)cc1C1OCCO1` [Example 141]: 1.89 and 2.98.
The matching figures for `Fc1ccc(Nc2ncc(Br)c(NC3CCC3)n2)cc1C1OCCO1` [Example 142]: 2.22 and 3.55.
The matching figures for `Fc1ccc(Nc2ncc(C(F)(F)F)c(NC3CC3)n2)cc1C1OCCO1` [Example 143]: 2.76 and 3.2.
Turning to `Fc1ccc(Nc2ncc(Cl)c(NC3CC3)n2)cc1C1OCCCO1` [Example 144], the log p in data set [3] (pH 2.7) stood at 1.87; in data set [3] (pH 7.8) it was 3.02.
The matching figures for `Fc1ccc(Nc2ncc(Br)c(NC3CC3)n2)cc1C1OCCCO1` [Example 145]: 2.01 and 3.16.
The matching figures for `Fc1ccc(Nc2ncc(Br)c(NC3CCC3)n2)cc1C1OCCCO1` [Example 146]: 2.3 and 3.75.
The matching figures for `Fc1ccc(Nc2ncc(C(F)(F)F)c(NC3CC3)n2)cc1C1OCCCO1` [Example 147]: 2.27 and 3.40.
With `CC(C)Nc1nc(Nc2cccc(C3OCCO3)c2)ncc1Cl` [Example 148], the figures for the log p in data set [3] (pH 2.7) and in data set [3] (pH 7.8) were 1.7 and 3.04, respectively.
The matching figures for `CC(C)Nc1nc(Nc2cccc(C3OCCCO3)c2)ncc1Cl` [Example 149]: 1.73 and 3.2.
`CCC1COC(c2cccc(Nc3ncc(Br)c(NC4CC4)n3)c2)O1` (stereo not drawn) [Example 150]: the log p in data set [3] (pH 7.8) is 3.68[c].
On to `Brc1cnc(Nc2cccc(C3OCCCO3)c2)nc1NC1CCC1` [Example 151], for which the log p in data set [3] (pH 2.7) turned out to be 2.11; in data set [3] (pH 7.8) it was 3.54.
As for `Clc1cnc(Nc2cccc(C3OCCCO3)c2)nc1NCC1CC1` [Example 152], the log p in data set [3] (pH 2.7) was 1.87[b].
Consider `FC(F)(F)c1cnc(Nc2cccc(C3OCCCO3)c2)nc1NC1CC1` [Example 153], for which the log p in data set [3] (pH 2.7) was 2.71[b].
`CCOCCOCC1COC(c2cccc(Nc3ncc(Cl)c(NC4CC4)n3)c2)O1` (stereo not drawn) [Example 154]: the log p in data set [3] (pH 2.7) is 2.05; in data set [3] (pH 7.8) it was 3.13.
The matching figures for `CC1CSC(c2cccc(Nc3ncc(C(F)(F)F)c(NC4CC4)n3)c2)S1` (stereo not drawn) [Example 155]: 4.14 and 4.44.
Turning to `Clc1cnc(Nc2cccc(C3OCC(CBr)O3)c2)nc1NC1CC1` (stereo not drawn) [Example 156], the log p in data set [3] (pH 2.7) is 2.39; in data set [3] (pH 7.8) it was 3.48.
The matching figures for `CC1CCC2OC(c3cccc(Nc4ncc(Cl)c(NC5CC5)n4)c3)OC12` (stereo not drawn) [Example 157]: 2.79 and 4.1.
The matching figures for `CC1(C)OC(c2cccc(Nc3ncc(Cl)c(NC4CC4)n3)c2)OC1(C)C` [Example 158]: 2.78 and 4.13.
The matching figures for `CCC1(CO)COC(c2cccc(Nc3ncc(Cl)c(NC4CC4)n3)c2)OC1` (stereo not drawn) [Example 159]: 1.82 and 2.77.
As for `OCC1CSC(c2cccc(Nc3ncc(Cl)c(NC4CC4)n3)c2)S1` (stereo not drawn) [Example 160], the log p in data set [3] (pH 7.8) is 2.72[c].
As for `CC1CSC(c2cccc(Nc3ncc(Cl)c(NC4CC4)n3)c2)S1` (stereo not drawn) [Example 161], the figures for the log p in data set [3] (pH 2.7) and in data set [3] (pH 7.8) were 2.79 and 4.14, respectively.
The matching figures for `OCC1CSC(c2cccc(Nc3ncc(Cl)c(NC4CCC4)n3)c2)S1` (stereo not drawn) [Example 162]: 1.93 and 3.14.
The matching figures for `CC1CSC(c2cccc(Nc3ncc(Cl)c(NC4CCC4)n3)c2)S1` (stereo not drawn) [Example 163]: 3.23 and 4.72.
The matching figures for `OCC1CSC(c2cccc(Nc3ncc(Br)c(NC4CCC4)n3)c2)S1` (stereo not drawn) [Example 164]: 2.11 and 3.28.
With `CC1CSC(c2cccc(Nc3ncc(Br)c(NC4CCC4)n3)c2)S1` (stereo not drawn) [Example 165], the log p worked out at 3.49 in data set [3] (pH 2.7) and 4.92 in data set [3] (pH 7.8).
The matching figures for `OCC1CSC(c2cccc(Nc3ncc(Br)c(NC4CC4)n3)c2)S1` (stereo not drawn) [Example 166]: 1.89 and 2.85.
As for `CC1CSC(c2cccc(Nc3ncc(Br)c(NC4CC4)n3)c2)S1` (stereo not drawn) [Example 167], the log p in data set [3] (pH 2.7) is on record as 3.1; in data set [3] (pH 7.8), 4.31.
For the compound `OCC1CSC(c2cccc(Nc3ncc(C(F)(F)F)c(NC4CC4)n3)c2)S1` (stereo not drawn) [Example 168], the figures for the log p in data set [3] (pH 2.7) and in data set [3] (pH 7.8) were 2.65 and 3.03, respectively.
